Here are results for 31 molecules from patent US5948793A, “3-pyridyloxymethyl heterocyclic ether compounds useful in controlling neurotransmitter release” (Abbott Laboratories, priority 1995, dated 1999).

Structures are written as SMILES. Where a name gives a salt, the structure may show the parent alone. Read-outs that look alike come from different tables or passages of the source.

The target in test [1] is neuronal nicotinic cholinergic channel receptors. Briefly: [3H]-cytisine displacement binding to neuronal nicotinic cholinergic channel receptors. The class given is rat (crude synaptic membranes from whole rat brain). The conditions noted are these: read-out: Receptor Binding Ki. On the procedure: B. Protocol For Determination of Nicotinic Cholinergic Channel Receptor Binding Potencies of Ligands
Binding of [^3 H]-cytisine ([^3 H]-CYT) to nicotinic receptors was accomplished using crude synaptic membrane preparations from whole rat brain (Pabreza et al., Molecular Pharmaol., 1990, 39:9). Washed membranes were stored at -80° C. prior to use. Frozen aliquots were slowly thawed and resuspended in 20 volumes of buffer (containing: 120 mM NaCl, 5 mM KCl, 2 mM MgCl2, 2 mM CaCl2 and 50 mM Tris-Cl, pH 7.4 @4° C.). After centrifuging at 20,000×g for 15 minutes, the pellets were resuspended in 30 volumes of buffer. Homogenate (containing […]) was added to triplicate tubes containing concentrations of test compound and [^3 H]-CYT (1.25 nM) in a final volume of 500 μL. Samples were incubated for 60 minutes at 4° C., then rapidly filtered through Whatman GF/B filters presoaked in 0.5% polyethylimine using 3×4 mL of ice-cold buffer. The filters are counted in 4 mL of Ecolume® (ICN). […] Alternately, data were expressed as a percentage of the total specific binding.

Test [2] concerns nAChR evoked release of [3H]-dopamine, rat striatal slices. Briefly: Striatal dopamine release assay (nAChR evoked release of [3H]-dopamine from superfused rat striatal slices). The class given is cell-based, rat (male Sprague-Dawley). The conditions noted are these: Table 1, relative to 100 nM (-)-nicotine. On the procedure:
The protocol for this procedure follows below.
A. Protocol for Determination of Striatal Dopamine Release.
nAChR evoked release of [ring-2,5,6-^3 H]-dopamine (24.4 Ci/mmol) was measured in superfused rat striatal slices. Striata were dissected from two male Sprague-Dawley rats per experiment and sliced 0.35×0.25 mm by a McIlwain Tissue Chopper (Brinkman Instrument Co., Westbury, N.Y.). After two washes with Krebs-HEPES buffer (137 mM NaCl, 4.7 mM KCl, 1 mM MgSO4, 2.5 mM CaCl2, 1.25 mM NaH2 PO4, 10 mM glucose, 15 mM HEPES-NaOH, pH 7.4, containing 10 μM pargyline and 10 μM ascorbic acid), slices were preincubated for 10 minutes at 37° C. under 95%/5% O2 /CO2. After replacing the buffer, slices were labeled with 100 nM [^3 H]-dopamine for 25 min in Krebs-HEPES at 37° C. Aliquots of slices were placed in 18 superfusion chambers of a Brandel SP2000 superfusion apparatus (Brandel, Gaithersberg, Md.). Following 47 minutes of washout, slices were exposed to agonist at various concentrations for 4 minutes. Antagonists or inhibitors, when present were introduced 4 minutes prior to and during agonist exposure. Collected fractions were counted in 5 mL of Ecolume. Tissue was recovered from superfusion chambers, solubilized with 1 mL of Solvable™ (DuPont-NEN) and counted in 15 mL of Ecolume. Fractional release of [^3 H]-dopamine was calculated from radioactivity above baseline as a fraction of total radioactivity.

The subject of test [3] is release of dopamine and acetylcholine. The conditions noted are these: cited from earlier work.
Where [4] appears, read: Table 1, [3H]-cytisine 1.25 nM, 60 min at 4° C.
Where [5] appears, read: example concentration * = 10 μM.
The mark [6] stands for this setting: example concentration ** = 1 μM.
Setting [7] is: example concentration *** = 0.1 μ.
Setting [8] is: Table 2, [3H]-cytisine 1.25 nM, 60 min at 4° C.

One may read the Ki as a measure of affinity in units of concentration, obtained from inhibition or displacement.

In the case of `Cc1ccc(OC[C@@H]2CCN2C)cn1.Cl.Cl` [Example 59, 3-((1-methyl-2-(S)-azetidinyl)methoxy)-6-methylpyridine dihydrochloride], the inhibition constant (Ki) in test [1] (setting [4]) was determined as 4.5 nM. Moreover, the “Dopamine Release relative to Nicotine” value in test [2] (setting [5]) is listed as 0.7.
In the case of `CN1CCC[C@@H]1COc1cccnc1.Cl` [Example 1, 3-((1-methyl-2-(R)-pyrrolidinyl)methoxy)pyridine hydrochloride], the Ki in test [1] (setting [4]) is 23 nM. In test [2] (setting [5]), the “Dopamine Release relative to Nicotine” value was 0.08.
With `O=C(O)/C=C/C(=O)O.c1cncc(OC[C@@H]2CCCN2)c1` [Example 14, 3-(2-(S)-pyrrolidinylmethoxy)pyridine fumarate], the inhibitory constant (Ki) in test [1] stood at 0.14 nM. Moreover, the “Dopamine Release relative to Nicotine” value in test [2] (setting [6]) is 1.0.
`Cc1ccc(OC[C@@H]2CCCN2C)cn1.Cl.Cl` [Example 19, 6-methyl-3-((1-methyl-2-(S)-pyrrolidinyl)methoxy)pyridine dihydrochloride]: the Ki in test [1] is 1.47 nM. In test [2] (setting [7]), the “Dopamine Release relative to Nicotine” value amounted to 0.78.
Consider `COC(=O)C(c1ccccc1)C1CCCCN1` (stereo not drawn) [methylphenidate], for which, in test [3], the “release of dopamine and acetylcholine” value is “enhance the release of dopamine and acetylcholine”.
`CCN1CCC[C@H]1COc1cccnc1.Cl.Cl` [Example 38, 3-((1-ethyl-2(S)-pyrrolidinyl)methoxy)pyridine dihydrochloride]: in test [1], the Ki worked out at 13 nM. Besides, the “Dopamine Release relative to Nicotine” value in test [2] (setting [5]) is given as 0.6.
For the molecule `CN1CC[C@H]1COc1cnccn1.Cl.Cl` [Example 8, 2-((1-methyl-2-(S)-azetidinyl)methoxy)pyrazine dihydrochloride], in test [1] (setting [4]), the inhibition constant (Ki) is 33 nM. Also, in test [2] (setting [6]), the “Dopamine Release relative to Nicotine” value amounted to 0.55.
For `Cl.Cl.Clc1cncc(OC[C@H]2CCCN2)c1` [Example 33, 5-chloro-3-(2-(R)-pyrrolidinylmethoxy)pyridine dihydrochloride] the same measures were 0.2 nM and 0.62.
Turning to `Clc1ccc(OC[C@@H]2CCN2)cn1` [Example 52, 3-(2-(S)-azetidinylmethoxy)-6-chloropyridine dihydrochloride], in test [1] (setting [4]), the Ki turned out to be 0.04 nM. In addition, in test [2] (setting [5]), the “Dopamine Release relative to Nicotine” value is listed as 1.0.
`CN1CC[C@H]1COc1cccnc1.Cl.Cl` [Example 10, 3-((1-methyl-2-(S)-azetidinyl)methoxy)pyridine dihydrochloride]: the Ki in test [1] worked out at 0.25 nM. In test [2] (setting [5]), the “Dopamine Release relative to Nicotine” value amounted to 1.0.
In the same order, the values of `CN1CCC[C@H]1COc1cccnc1.O=C(O)/C=C/C(=O)O` [Example 4, 3-((1-methyl-2-(S)-pyrrolidinyl)methoxy)pyridine fumarate] are 0.2 nM and 1.0.
For the molecule `CN1CCC[C@H]1COc1cnc2ccccc2c1.Cl` [Example 31, 3-(1-methyl-2-(S)-pyrrolidinylmethoxy)quinoline hydrochloride], the Ki in test [1] (setting [4]) amounted to 0.7 nM. Further, in test [2] (setting [5]), the “Dopamine Release relative to Nicotine” value turned out to be 0.15.
`FC(F)(F)c1cncc(OC[C@@H]2CCCN2)c1` [Example 66, 3-(2-(S)-pyrrolidinylmethoxy)-5-trifluoromethylpyridine dihydrochloride]: the Ki in test [1] (setting [8]) came out at 4 nM.
In the case of `Cc1ccc(OC[C@@H]2CCCN2)cn1.Cl.Cl` [Example 18, 6-methyl-3-(2-(S)-pyrrolidinylmethoxy)pyridine dihydrochloride], the inhibition constant (Ki) in test [1] worked out at 0.28 nM. Also, the “Dopamine Release relative to Nicotine” value in test [2] (setting [7]) stood at 1.0.
`CN1CCC[C@H]1COc1cncc([N+](=O)[O-])c1` [Example 108, 5-Nitro-3-(1-methyl-2(S)-pyrrolidinylmethoxy)pyridine hydrochloride]: the inhibitory constant (Ki) in test [1] (setting [8]) came out at 4.9 nM.
Regarding `Clc1ccc(OC[C@H]2CCCN2)cn1` [Example 58, 3-(2-(R)-pyrrolidinylmethoxy)-6-chloropridine hydrochloride], the Ki in test [1] (setting [8]) amounted to 5.3 nM.
Turning to `C=CCN1CCC[C@H]1COc1cncc(Br)c1` [Example 57, 3-((1-allyl-2-(S)-pyrrolidinyl)methoxy)-5-bromopyridine dihydrochloride], the Ki in test [1] (setting [8]) amounted to 17 nM.
`CN1CCC[C@H]1COc1cncnc1` [Example 84, 5-(1-methyl-2-(S)-pyrrolidinylmethoxy)pyrimidine dihydrochloride]: the Ki in test [1] (setting [8]) was found to be 2.41 nM.
Same read-out and setting: then `CN1CCC[C@H]1COc1cccnn1` [Example 79, 3-((1-methyl-2-(S)-pyrroidinyl)methoxy)pyridazine dihydrochloride], with 42.8 nM.
As for `C[C@@H]1C[C@@H](COc2cccnc2)N(C)C1` [Example 24, 3-((trans-1,4-dimethyl-2(S)-pyrrolidinyl)methoxy)pyridine dihydrochloride], the inhibitory constant (Ki) in test [1] is 4.2 nM.
`CN1CCC[C@H]1COc1cncc(C(F)(F)F)c1` [Example 44, 3-(1-methyl-2-(S)-pyrrolidinylmethoxy)-5-trifluoromethylpyridine dihydrochloride]: the inhibitory constant (Ki) in test [1] (setting [8]) was 1.8 nM.
The same measure, in the same setting: next, `CN1CC[C@H]1COc1cncc(Cl)c1` [Example 80, 5-chloro-3-((1-methyl-2-(S)-azetidinyl)methoxy)pyridine dihydrochloride]: 1.9 nM.
For `Cc1ccncc1OC[C@@H]1CCCN1` [Example 27, 4-methyl-3-(2-(S)-pyrrolidinylmethoxy)pyridine dihydrochloride], in test [1], the inhibition constant Ki worked out at 5.8 nM.
`Cc1ccc(OC[C@H]2CCCN2)cn1.Cl.Cl` [Example 37, 6-methyl-3-(2-(R)-pyrrolidinylmethoxy)pyridine dihydrochloride]: the Ki in test [1] was found to be 0.5 nM. The “Dopamine Release relative to Nicotine” value in test [2] (setting [5]) worked out at 0.8.
As to `CN1CCC[C@@H]1COc1cncc(Cl)c1` [Example 34, 5-chloro-3-((1-methyl-2-(R)-pyrrolidinyl)methoxy)pyridine dihydrochloride], the Ki in test [1] stood at 11 nM.
On the same count and under the same terms, then `CN1C[C@H](O)C[C@H]1COc1cccnc1` [Example 23, 3-((trans-1-methyl-4-hydroxy-2(S)-pyrrolidinyl)methoxy)pyridine dihydrochloride], with 78.3 nM; and `CN1CCC[C@H]1COc1cncc2ccccc12` [Example 32, 4-(1-methyl-2-(S)-pyrrolidinylmethoxy)isoquinoline hydrochloride], with 110 nM.
With `CN1CCC[C@H]1COc1cncc(Cl)c1.Cl.Cl` [Example 16, 5-chloro-3-((1-methyl-2-(S)-pyrrolidinyl)methoxy)pyridine dihydrochloride], the “Dopamine Release relative to Nicotine” value in test [2] (setting [6]) was 1.0.
As to `Cc1ccncc1OC[C@@H]1CCCN1C.Cl.Cl` [Example 46, 4-methyl-3-((1-methyl-2-(S)-pyrrolidinyl)methoxy)pyridine dihydrochloride], the Ki in test [1] (setting [4]) worked out at 4 nM. The “Dopamine Release relative to Nicotine” value in test [2] (setting [5]) came to 0.85.
In the case of `C[C@H](N)Cc1ccccc1` [d-amphetamine], the “release of dopamine and acetylcholine” value in test [3] is “enhance the release of dopamine and acetylcholine”.
With `Clc1cc(OC[C@@H]2CCN2)cnc1Cl` [Example 109, 5,6-Dichloro-3-(2-(S)-azetidinylmethoxy)pyridine hydrochloride], the Ki in test [1] (setting [8]) was determined as 0.024 nM.
